Data published in PMC6522912, “Evaluation of the published kinase inhibitor set to identify multiple inhibitors of bacterial ATP-dependent mur ligases” (Journal of Enzyme Inhibition and Medicinal Chemistry, 2019).
Read-outs that look alike come from different tables or passages of the source.

Assays:
E. coli MurC = E. coli MurC (Escherichia coli, UniProt P17952); experiment: Malachite green inhibition assay, MurC; assay type: biochemical; details: for RA (%) MurC: Table S3, aza stilbene compounds; for remaining activity at 100 µM: 0.25 h
Chain of E. coli MurC (P17952 whole entry): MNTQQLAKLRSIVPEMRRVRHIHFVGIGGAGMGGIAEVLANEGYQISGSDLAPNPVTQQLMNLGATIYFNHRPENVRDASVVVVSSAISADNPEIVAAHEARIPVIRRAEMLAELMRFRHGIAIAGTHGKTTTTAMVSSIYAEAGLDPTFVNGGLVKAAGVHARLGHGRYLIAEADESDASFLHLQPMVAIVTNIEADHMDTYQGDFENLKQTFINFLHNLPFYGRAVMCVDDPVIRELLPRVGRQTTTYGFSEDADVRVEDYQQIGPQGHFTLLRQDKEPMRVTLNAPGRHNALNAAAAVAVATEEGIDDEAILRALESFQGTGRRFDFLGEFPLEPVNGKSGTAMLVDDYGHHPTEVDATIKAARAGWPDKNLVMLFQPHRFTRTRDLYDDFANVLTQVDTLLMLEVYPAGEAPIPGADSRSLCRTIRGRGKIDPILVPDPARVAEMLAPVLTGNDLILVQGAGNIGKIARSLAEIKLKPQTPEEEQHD

E. coli MurD = E. coli MurD (Escherichia coli, UniProt P14900); experiment: biochemical; details: for remaining activity at 100 µM: 0.25 h, Table S1, PKIS screening, read-out: RA [%] at 100 µM MurD
Chain of E. coli MurD (P14900 whole entry): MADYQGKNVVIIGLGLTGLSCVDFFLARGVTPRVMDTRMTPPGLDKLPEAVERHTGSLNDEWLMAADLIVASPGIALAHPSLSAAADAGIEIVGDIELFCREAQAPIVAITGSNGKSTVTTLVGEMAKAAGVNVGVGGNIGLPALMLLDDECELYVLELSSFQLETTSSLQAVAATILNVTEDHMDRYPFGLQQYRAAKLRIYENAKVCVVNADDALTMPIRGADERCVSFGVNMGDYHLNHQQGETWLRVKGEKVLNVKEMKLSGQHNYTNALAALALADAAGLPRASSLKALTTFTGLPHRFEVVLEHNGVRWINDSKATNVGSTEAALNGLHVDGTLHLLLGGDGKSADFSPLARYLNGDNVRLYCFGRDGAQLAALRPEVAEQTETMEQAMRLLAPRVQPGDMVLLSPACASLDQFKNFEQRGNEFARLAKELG
In short: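 Reaction 15 min at 37 °C, then phosphate detected with Biomol green at 650 nm. Values are residual activity versus 5% DMSO carrier controls.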

E. coli MurF = E. coli MurF (Escherichia coli, UniProt P11880); experiment: biochemical; details: for RA (%) MurF: Table S3, aza stilbene compounds; for remaining activity at 100 µM: 0.25 h, read-out: RA [%] at 100 µM MurF; for remaining activity at 100 µM / RA [%] at 100 µM MurF: Table S1, PKIS screening
Chain of E. coli MurF (P11880 whole entry): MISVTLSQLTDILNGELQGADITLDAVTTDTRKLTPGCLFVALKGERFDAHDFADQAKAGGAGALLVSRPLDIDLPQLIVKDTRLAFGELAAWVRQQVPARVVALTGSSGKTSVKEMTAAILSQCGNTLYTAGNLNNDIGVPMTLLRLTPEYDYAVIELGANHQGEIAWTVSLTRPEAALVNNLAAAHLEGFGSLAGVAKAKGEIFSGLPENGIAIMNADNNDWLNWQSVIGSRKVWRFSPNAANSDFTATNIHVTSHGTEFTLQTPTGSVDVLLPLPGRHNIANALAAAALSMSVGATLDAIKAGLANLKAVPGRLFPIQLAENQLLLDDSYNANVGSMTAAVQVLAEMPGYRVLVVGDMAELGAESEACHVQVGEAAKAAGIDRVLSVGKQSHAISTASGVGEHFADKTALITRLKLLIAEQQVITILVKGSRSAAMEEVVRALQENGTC

[1] = Table S1, PKIS screening, read-out: RA [%] at 100 µM MurC
[2] = read-out: RA [%] at 100 µM MurC, Table S1, PKIS screening

Compound | remaining activity at 100 µM (E. coli MurC; [1]) [%] | remaining activity at 100 µM (E. coli MurD) [%] | remaining activity at 100 µM (E. coli MurF) [%] | also measured
Cc1cc(O)cc(C)c1C=Cc1cncc(C(N)=O)c1 [Compound 14] | – | – | – | RA (%) MurC (E. coli MurC): 89%; RA (%) MurD (E. coli MurD): 89%; RA (%) MurF (E. coli MurF): 75%
CC(C)c1ccc(-c2cc(-c3c[nH]nc3-c3ccccn3)ccn2)cc1 [GW682841X] | 78 | 85 | 88 | –
CN1CCC(n2cnc(-c3ccc(F)cc3)c2-c2ccnc(NCCO)n2)CC1 [SB-226879] | – | 98 | 68 | remaining activity at 100 µM (E. coli MurC; [2]): 65%
CCc1ccc(Oc2nccc(-c3c(-c4ccc(F)cc4)ncn3C3CCNCC3)n2)cc1 [SB-242719] | – | 87 | 80 | remaining activity at 100 µM (E. coli MurC; [2]): 51%
CN(C)CCOc1ccc(-c2cc(-c3ccc4c(c3)CCC4=NO)c(-c3ccncc3)o2)cc1.Cl [SB-682330-A] | – | – | – | RA [%] at 100 µM MurC (E. coli MurC; Table S1, PKIS screening): 31%; RA [%] at 100 µM MurD (E. coli MurD): 51; RA [%] at 100 µM MurF (E. coli MurF): 57%
CNC(=O)c1cncc(C=Cc2ccccc2C)c1 [Compound 8] | – | – | – | RA (%) MurC (E. coli MurC): 100%; RA (%) MurD (E. coli MurD): 91%; RA (%) MurF (E. coli MurF): 85%
CN(C)c1cc2c(Nc3ccc4c(cnn4Cc4ccccc4)c3)ncnc2cn1 [GW282974X] | 77 | 70 | 55 | –
O=C(Nc1n[nH]c2cc(-c3ccccc3)ccc12)C1CC1 [SB-732941] | 80 | 79 | 86 | –
CNC(=O)c1cncc(/C=C/c2c(Cl)cccc2Cl)c1 [GW445014X] | 81 | 80 | 77 | –
CN1CCC(C(=O)Nc2n[nH]c3nnc(-c4ccccc4)cc23)CC1.Cl [SB-678557-A] | – | – | – | RA [%] at 100 µM MurC (E. coli MurC; Table S1, PKIS screening): 74%; RA [%] at 100 µM MurD (E. coli MurD): 76; RA [%] at 100 µM MurF (E. coli MurF): 95%
CN1CCN(CCCNc2nc3ccc(Oc4ccc(NC(=O)Nc5cc(C(F)(F)F)ccc5F)cc4)cc3[nH]2)CC1 [GW700494A] | 99 | 73 | 95 | –
CCOc1nccc2c1nc(-c1nonc1N)n2CC [SB-737198] | 73 | 100 | 100 | –
CCn1c(-c2nonc2N)nc2ccc(F)cc21 [GW785404X] | 100 | 88 | 79 | –
COc1cc(Nc2ncc(-c3ccccc3)o2)cc(OC)c1OC [GW627512B] | 98 | 72 | 100 | –
COc1ccc2c(-c3ccnc(Nc4cccc(OC(F)(F)F)c4)n3)cnn2n1 [GW810372X] | 46 | 70 | 73 | –
O=C1Nc2ccccc2/C1=C/Nc1ccc(-n2cncn2)cc1 [GW301789X] | 64 | 91 | 75 | –
COC(=O)c1cncc(/C=C/c2c(C)cc(O)cc2C)c1 [GW406731X] | 98 | 69 | 81 | –
Nc1ncnc2occ(-c3ccc(NC(=O)Nc4cc(C(F)(F)F)ccc4F)cc3)c12 [GW770249A] | 60 | 83 | 63 | –
O=C(O[C@H]1CN[C@H](C#Cc2cc3ncnc(Nc4ccc(OCc5cccc(F)c5)c(Cl)c4)c3s2)C1)N1CCOCC1 [GW869810X] | 65 | 55 | 77 | –
OCCCNc1nccc(-c2c(-c3ccc(F)cc3)nn3cc(C(F)(F)F)ccc23)n1 [GW569293E] | 54 | 89 | 72 | –
Fc1ccc(-c2cc(-c3c[nH]nc3-c3ccccn3)ccn2)cc1 [GW680975X] | 68 | 84 | 96 | –
CN(c1ccc(NC(=O)Nc2c(Cl)cccc2Cl)cc1)c1ccnc(Nc2cccc(CS(C)(=O)=O)c2)n1 [GW809897X] | 26 | 55 | 51 | –
NS(=O)(=O)c1ccc(NN=C2C(=O)Nc3ccc(C(=O)NCc4ccncc4)cc32)cc1 [GW300657X] | 75 | 96 | 85 | –
COc1cccc(-n2cnc3c(N/N=C/c4ccncc4)ncnc32)c1 [GW813360X] | 65 | 84 | 81 | –
COc1ccc2[nH]c3c4[nH]c5ccc(OC)cc5c4c4c(c3c2c1)C(=O)NC4=O [GW296115X] | 100 | 87 | 100 | –

Compound | remaining activity at 100 µM (E. coli MurC; [1]) [%] | remaining activity at 100 µM (E. coli MurD) [%] | remaining activity at 100 µM (E. coli MurF) [%] | also measured
COC(=O)c1ccc2c(c1)C(=Cc1cc(Br)c(O)c(Br)c1)C(=O)N2 [GW405841X] | 93 | 82 | 75 | –
CCn1c(-c2nonc2N)nc2c(C#CC(C)(C)O)ncc(OC[C@@H]3CCCN3)c21 [GSK614526A] | 65 | 89 | 100 | –
CS(=O)(=O)CCNCc1coc(-c2ccc3ncnc(Nc4ccc(OCc5ccccc5)cc4)c3c2)c1 [GW566221B] | 69 | 69 | 82 | –
Nc1nc(-c2ccc3c(c2)C(=Cc2cc(Br)c(O)c(Br)c2)C(=O)N3)cs1 [GW407323A] | 64 | 54 | 41 | –
COc1cc(Nc2nccc(-c3cnn4ncccc34)n2)cc(OC)c1 [GW801372X] | 94 | 88 | 80 | –
Fc1ccc(-c2ncn(C3CCNCC3)c2-c2ccnc(Oc3ccccc3)n2)cc1 [SB-239272] | 100 | 67 | 75 | –
CCn1c(-c2nonc2N)nc2cncc(C(=O)N3CC[C@H](N)C3)c21 [SB-772077-B] | – | – | – | RA [%] at 100 µM MurC (E. coli MurC; Table S1, PKIS screening): 77%; RA [%] at 100 µM MurD (E. coli MurD): 90; RA [%] at 100 µM MurF (E. coli MurF): 80%
COc1cc(/C=N/Nc2ncnc3c2cnn3C(C)C)ccc1O [GW644007X] | 87 | 91 | 78 | –
Cn1cc(C=C2C(=O)Nc3cccnc32)c2ccccc21 [GW441756X] | 75 | 99 | 89 | –
CNC(=O)c1cncc(C=Cc2ccccc2Cl)c1 [Compound 11] | – | – | – | RA (%) MurC (E. coli MurC): 68%; RA (%) MurD (E. coli MurD): 87%; RA (%) MurF (E. coli MurF): 90%
COc1ccccc1Nc1ncc(-c2ccccc2)o1 [GW577921A] | 71 | 84 | 76 | –
CCc1cccc(NC(=O)Nc2ccc(Oc3ccc4nc(NC(=O)OC)[nH]c4c3)cc2)c1 [GW673715X] | 79 | 83 | 68 | –
NC(=O)c1ccc(-c2nc(-c3ccc4c(c3)OCO4)c(-c3ccccn3)[nH]2)cc1 [SB-431542-A] | – | – | – | RA [%] at 100 µM MurC (E. coli MurC; Table S1, PKIS screening): 59%; RA [%] at 100 µM MurD (E. coli MurD): 90; RA [%] at 100 µM MurF (E. coli MurF): 100%
Cc1ccc(Nc2ccnc(Nc3cccc(C(N)=O)c3)n2)cc1O [GW575808A] | 100 | 89 | 100 | –
Cc1nnc(-c2ccc(C)c(-c3ccc(C(=O)NCc4ccc(Cl)cc4)cc3)c2)o1 [GW708893X] | 100 | 100 | 94 | –
COc1cc(C=NNc2ncnc3c2cnn3Cc2ccccc2)ccc1O [GW643971X] | 56 | 78 | 25 | –
COc1ccc(-c2cc(-c3c[nH]nc3-c3ccccn3)ccn2)cc1 [GW679410X#4] | – | – | – | RA [%] at 100 µM MurC (E. coli MurC; Table S1, PKIS screening): 61%; RA [%] at 100 µM MurD (E. coli MurD): 98%; RA [%] at 100 µM MurF (E. coli MurF): 82%
CNC(=O)c1cncc(C=Cc2c(C)cccc2C)c1 [Compound 9] | – | – | – | RA (%) MurC (E. coli MurC): 85%; RA (%) MurD (E. coli MurD): 83%; RA (%) MurF (E. coli MurF): 54%
O=C(Nc1n[nH]c2cc(-c3cc(F)ccc3F)ccc12)C1CC1 [SB-735465] | 59 | 80 | 82 | –
CCn1cc(-c2ccnc3[nH]ccc23)c(-c2cccc(NC(=O)Nc3ccc(OCc4ccccc4)cc3)c2)n1 [GSK718429A] | 94 | 83 | 99 | –
C[C@@H](Oc1cc(-n2cnc3ccc(OCC4CCN(C)CC4)cc32)sc1C(N)=O)c1ccccc1Cl [GSK571989A] | 51 | 53 | 53 | –
Cc1ccc(C(=O)NC2CC2)cc1-c1ccc2[nH]ncc2c1 [GW820759X] | 63 | 100 | 86 | –
CN(c1ccc(NC(=O)Nc2ccc(OC(F)(F)F)cc2)cc1)c1ccnc(Nc2cccc(S(N)(=O)=O)c2)n1 [GW806742X] | 64 | 92 | 93 | –
CCCN1CCC(c2ccc(Nc3nc(Nc4cc(F)ccc4C(N)=O)c4cc[nH]c4n3)c(OC)c2)CC1 [GSK1326255A] | 0 | 9 | 4 | IC50 (E. coli MurD; printed in the RA cell of Table S1, read-out: IC50 MurD): 39 µM
